Measurements reported in patent publication US11446319B2, “Composition containing flavonoid-cyclodextrin clathrate compound” (TAIYO KAGAKU CO., LTD., priority 2018, dated 2022).

Tested on: human dermal fibroblasts
Format: cell-based
Conditions: 24 h
Method: Specifically, human dermal fibroblasts (manufactured by PromoCell) were subcultured in a 24-well plate using a medium for cells in a proportion of 3×10^4 cells/well. […] After 24 hours, the viability of the cells was analyzed.
The viability of the cells was analyzed as follows. The cells were incubated at 37° C. and 5% CO2 for 1 hour in the presence of Neutral Red (pigment) (The live cells incorporating Neutral Red, thereby making the cells distinguishable from dead cells or damaged cells, and quantifiable). Next, 50% ethanol and a solution of 0.05 M NaH2PO4 were added to the cells to thereby extract out the pigment from the cells. Thereafter, the absorbance of the cells was measured with a spectrophotometer at 540 nm, and compared to that of the cells unexposed to the light, and shown as viability (%)=(analytical value at 540 nm of the photo-irradiated cells×100/analytical value at 540 nm of the cells not irradiated with light) in Table 26.
The evaluation was made in the same manner as in Example 231 except that the composition used during the incubation for 24 hours was changed to have the components as listed in Tables 26 to 29.

C[C@H](O)[C@H](O)[C@@H](O)[C@@H](O)C=O [rhamnose]
viability: about 5%
